The target of assay [1] is HLA-DR1 (DRB1*0101) molecules (Homo sapiens, UniProt P01903+P01911, A100R/D57E/F55L/F60I/F76Y/I96L/L162R/M171V/P40L/Q125E/R42F/V115G/Y59C). In words: Competitive binding assay with recombinant water-soluble HLA-DR1.
Assay [2] has as its target HLA-DR4 (DRB1*0401) molecules (Homo sapiens, UniProt P01903+P01911, A100K/A169T/F76Y/I96L/K127E/L162R/M171V/N62H/P40V/Q125Y/R42H/S133A/S149N/S66Y/V115G/V209L/W38E). Nature of the assay: Competitive binding assay with recombinant water-soluble HLA-DR4.
The mark [3] stands for this setting: Affinity for HLA-DR1 (DRB1*0101) molecules determined by competition with biotinylated competitor HA 306-318, biotinylated competitor HA306-318.
Where [4] appears, read: biotinylated competitor YEAK, read-out: Affinity for HLA-DR1 (DRB1*0101) molecules determined by competition with biotinylated competitor YEAK.
Where [5] appears, read: Affinity for HLA-DR4 (DRB1*0401) molecules determined by competition with biotinylated competitor HA 306-318, biotinylated competitor HA306-318.
The mark [6] stands for this setting: biotinylated competitor YEAK, read-out: Affinity for HLA-DR4 (DRB1*0401) molecules determined by competition with biotinylated competitor YEAK.

Read-outs that look alike come from different tables or passages of the source. Residues, ends and D or L forms follow the SMILES beside them.

On to `CC(C)C[C@H](NC(=O)[C@H](CCCCN)NC(=O)[C@H](CC(C)C)NC(=O)[C@@H](NC(=O)[C@H](CC(N)=O)NC(=O)[C@H](CCC(N)=O)NC(=O)[C@H](CCCCN)NC(=O)[C@@H](NC(=O)[C@H](Cc1ccc(O)cc1)NC(=O)[C@H](CCCCN)NC(=O)[C@@H]1CCCN1C(=O)[C@H](C)N)C(C)C)[C@@H](C)O)C(=O)N[C@@H](C)C(=O)N[C@H](C(=O)N[C@@H](C)C(=O)O)[C@@H](C)O` [compound 4], for which the IC50 in assay [1] (setting [3]) amounted to 13 µM; in assay [1] (setting [4]) it was 3.3 µM; in assay [2] (setting [5]), 26 µM; in assay [2] (setting [6]), 8.2 µM.
For the compound `C[C@H](N)C(=O)N[C@@H](C)C(=O)N[C@@H](C)C(=O)N[C@@H](Cc1ccc(O)cc1)C(=O)N[C@@H](C)C(=O)N[C@@H](C)C(=O)N[C@@H](C)C(=O)N[C@@H](C)C(=O)N[C@@H](C)C(=O)N[C@@H](C)C(=O)N[C@@H](CCCCN)C(=O)N[C@@H](C)C(=O)N[C@@H](C)C(=O)N[C@@H](C)C(=O)N[C@@H](C)C(=O)O` [compound 5] (H-AAAYAAAAAAKAAAA-OH), the IC50 in assay [2] (setting [5]) turned out to be 7 µM.
In the case of `C[C@H](N)C(=O)N[C@@H](CCCCN)C(=O)N[C@@H](CCC(=O)O)C(=O)N[C@@H](Cc1ccc(O)cc1)C(=O)N[C@@H](C)C(=O)N[C@@H](C)C(=O)N[C@@H](C)C(=O)N[C@@H](C)C(=O)N[C@@H](C)C(=O)N[C@@H](C)C(=O)N[C@@H](CCCCN)C(=O)N[C@@H](C)C(=O)N[C@@H](C)C(=O)N[C@@H](C)C(=O)N[C@@H](C)C(=O)O` [compound 7] (H-AKEYAAAAAAKAAAA-OH), the IC50 in assay [1] (setting [3]) was determined as 19 µM; in assay [2] (setting [5]), 4.5 µM.
Take `C[C@H](N)C(=O)N[C@@H](CCC(=O)O)C(=O)N[C@@H](CCC(=O)O)C(=O)N[C@@H](Cc1ccc(O)cc1)C(=O)N[C@@H](C)C(=O)N[C@@H](C)C(=O)N[C@@H](C)C(=O)N[C@@H](C)C(=O)N[C@@H](C)C(=O)N[C@@H](C)C(=O)N[C@@H](CCCCN)C(=O)N[C@@H](C)C(=O)N[C@@H](C)C(=O)N[C@@H](C)C(=O)N[C@@H](C)C(=O)O` [compound 11]: the IC50 in assay [2] (setting [5]) is 2 µM.
`C[C@H](N)C(=O)N[C@@H](C)C(=O)N[C@@H](CCC(=O)O)C(=O)N[C@@H](Cc1ccc(O)cc1)C(=O)N[C@@H](C)C(=O)N[C@@H](C)C(=O)N[C@@H](C)C(=O)N[C@@H](C)C(=O)N[C@@H](C)C(=O)N[C@@H](C)C(=O)N[C@@H](CCCCN)C(=O)N[C@@H](C)C(=O)N[C@@H](C)C(=O)N[C@@H](C)C(=O)N[C@@H](C)C(=O)O` [compound 12]: the IC50 in assay [1] (setting [3]) stood at 47 µM; in assay [2] (setting [5]), 3.2 µM.
Turning to `C[C@H](NC(=O)[C@H](C)NC(=O)[C@H](C)NC(=O)[C@H](C)NC(=O)[C@H](CCCCN)NC(=O)[C@H](C)NC(=O)[C@H](C)NC(=O)[C@H](C)NC(=O)[C@H](C)NC(=O)[C@H](C)NC(=O)[C@H](C)NC(=O)[C@H](Cc1ccc(O)cc1)NC(=O)[C@H](C)NC(=O)[C@H](CCCCN)NC(=O)[C@@H](N)CCC(=O)O)C(=O)O` [compound 13] (H-EKAYAAAAAAKAAAA-OH), the IC50 in assay [2] (setting [5]) was 3.3 µM.
Same read-out and setting: with `C[C@H](N)C(=O)N[C@@H](C)C(=O)N[C@@H](CCCCN)C(=O)N[C@@H](Cc1ccc(O)cc1)C(=O)N[C@@H](CCC(=O)O)C(=O)N[C@@H](C)C(=O)N[C@@H](C)C(=O)N[C@@H](C)C(=O)N[C@@H](C)C(=O)N[C@@H](C)C(=O)N[C@@H](CCCCN)C(=O)N[C@@H](C)C(=O)N[C@@H](C)C(=O)N[C@@H](C)C(=O)N[C@@H](C)C(=O)O` [compound 14] (H-AAKYEAAAAAKAAAA-OH) the figure was 4 µM.
Take `C[C@H](N)C(=O)N[C@@H](C)C(=O)N[C@@H](CCCCN)C(=O)N[C@@H](Cc1ccc(O)cc1)C(=O)N[C@@H](C)C(=O)N[C@@H](CCC(=O)O)C(=O)N[C@@H](C)C(=O)N[C@@H](C)C(=O)N[C@@H](C)C(=O)N[C@@H](C)C(=O)N[C@@H](CCCCN)C(=O)N[C@@H](C)C(=O)N[C@@H](C)C(=O)N[C@@H](C)C(=O)N[C@@H](C)C(=O)O` [compound 15] (H-AAKYAEAAAAKAAAA-OH): the IC50 in assay [1] (setting [3]) was 42 µM; in assay [1] (setting [4]), 16 µM; in assay [2] (setting [5]), 1.8 µM; in assay [2] (setting [6]) it was below 1 µM.
`C[C@H](NC(=O)[C@H](C)NC(=O)[C@H](C)NC(=O)[C@H](C)NC(=O)[C@H](CCCCN)NC(=O)[C@H](C)NC(=O)[C@H](C)NC(=O)[C@H](C)NC(=O)[C@H](C)NC(=O)[C@H](C)NC(=O)[C@H](C)NC(=O)[C@H](Cc1ccc(O)cc1)NC(=O)[C@H](C)NC(=O)[C@H](C)NC(=O)[C@@H](N)CCC(=O)O)C(=O)O` [compound 16] (H-EAAYAAAAAAKAAAA-OH): the IC50 in assay [2] (setting [5]) turned out to be 5 µM.
As for `C[C@H](NC(=O)[C@H](C)NC(=O)[C@H](C)NC(=O)[C@H](C)NC(=O)[C@H](CCCCN)NC(=O)[C@H](C)NC(=O)[C@H](C)NC(=O)[C@H](C)NC(=O)[C@H](C)NC(=O)[C@H](C)NC(=O)[C@H](C)NC(=O)[C@H](Cc1ccc(O)cc1)NC(=O)[C@H](CCCCN)NC(=O)[C@H](CCCCN)NC(=O)[C@@H](N)CCC(=O)O)C(=O)O` [compound 17] (H-EKKYAAAAAAKAAAA-OH), in assay [2] (setting [5]), the IC50 was determined as 1.8 µM.
As to `C[C@H](NC(=O)[C@H](C)NC(=O)[C@H](C)NC(=O)[C@H](C)NC(=O)[C@H](CCCCN)NC(=O)[C@H](C)NC(=O)[C@H](C)NC(=O)[C@H](C)NC(=O)[C@H](C)NC(=O)[C@H](C)NC(=O)[C@H](C)NC(=O)[C@H](Cc1ccc(O)cc1)NC(=O)[C@H](CCCCN)NC(=O)[C@H](C)NC(=O)[C@@H](N)CCC(=O)O)C(=O)O` [compound 18] (H-EAKYAAAAAAKAAAA-OH), the IC50 in assay [1] (setting [3]) came to 33 µM; in assay [2] (setting [5]) it was 4.4 µM; in assay [2] (setting [6]), 3 µM.
With `C[C@H](N)C(=O)N[C@@H](CCCCN)C(=O)N[C@@H](CCCCN)C(=O)N[C@@H](Cc1ccc(O)cc1)C(=O)N[C@@H](CCC(=O)O)C(=O)N[C@@H](C)C(=O)N[C@@H](C)C(=O)N[C@@H](C)C(=O)N[C@@H](C)C(=O)N[C@@H](C)C(=O)N[C@@H](C)C(=O)N[C@@H](C)C(=O)N[C@@H](C)C(=O)N[C@@H](C)C(=O)N[C@@H](C)C(=O)O` [compound 21], in assay [2] (setting [5]), the IC50 is 2.2 µM.
Turning to `C[C@H](N)C(=O)N[C@@H](C)C(=O)N[C@@H](CCC(=O)O)C(=O)N[C@@H](Cc1ccc(O)cc1)C(=O)N[C@@H](CCCCN)C(=O)N[C@@H](C)C(=O)N[C@@H](C)C(=O)N[C@@H](C)C(=O)N[C@@H](C)C(=O)N[C@@H](C)C(=O)N[C@@H](C)C(=O)N[C@@H](C)C(=O)N[C@@H](C)C(=O)N[C@@H](C)C(=O)N[C@@H](C)C(=O)O` [compound 26], in assay [2] (setting [5]), the IC50 worked out at 1.8 µM.
As for `C[C@H](N)C(=O)N[C@@H](CCC(=O)O)C(=O)N[C@@H](Cc1ccc(O)cc1)C(=O)N[C@@H](C)C(=O)N[C@@H](CCCCN)C(=O)N[C@@H](C)C(=O)N[C@@H](C)C(=O)N[C@@H](C)C(=O)N[C@@H](C)C(=O)N[C@@H](C)C(=O)N[C@@H](C)C(=O)N[C@@H](C)C(=O)N[C@@H](C)C(=O)N[C@@H](C)C(=O)N[C@@H](C)C(=O)O` [compound 32], the IC50 in assay [2] (setting [5]) came out at 3 µM.
As for `C[C@H](N)C(=O)N[C@@H](CCC(=O)O)C(=O)N[C@@H](CCCCN)C(=O)N[C@@H](C)C(=O)N[C@@H](Cc1ccc(O)cc1)C(=O)N[C@@H](C)C(=O)N[C@@H](C)C(=O)N[C@@H](C)C(=O)N[C@@H](C)C(=O)N[C@@H](C)C(=O)N[C@@H](C)C(=O)N[C@@H](C)C(=O)N[C@@H](C)C(=O)N[C@@H](C)C(=O)N[C@@H](C)C(=O)O` [compound 33], the IC50 in assay [2] (setting [5]) is below 1 µM.
The same measure, in the same setting: next, `C[C@H](N)C(=O)N[C@@H](Cc1ccc(O)cc1)C(=O)N[C@@H](CCCCN)C(=O)N[C@@H](C)C(=O)N[C@@H](CCC(=O)O)C(=O)N[C@@H](C)C(=O)N[C@@H](C)C(=O)N[C@@H](C)C(=O)N[C@@H](C)C(=O)N[C@@H](C)C(=O)N[C@@H](C)C(=O)N[C@@H](C)C(=O)N[C@@H](C)C(=O)N[C@@H](C)C(=O)N[C@@H](C)C(=O)O` [compound 35]: 1.3 µM.
The same measure, in the same setting: next, `C[C@H](N)C(=O)N[C@@H](CCCCN)C(=O)N[C@@H](Cc1ccc(O)cc1)C(=O)N[C@@H](C)C(=O)N[C@@H](CCC(=O)O)C(=O)N[C@@H](C)C(=O)N[C@@H](C)C(=O)N[C@@H](C)C(=O)N[C@@H](C)C(=O)N[C@@H](C)C(=O)N[C@@H](C)C(=O)N[C@@H](C)C(=O)N[C@@H](C)C(=O)N[C@@H](C)C(=O)N[C@@H](C)C(=O)O` [compound 36]: 3 µM.

The record behind these values is patent US9066905B2, “Synthetic peptides and methods of use for autoimmune disease therapies” (President and Fellows of Harvard College, priority 1998, dated 2015).
